Reference: patent publication US20080234262A1 (Wyeth, priority 2007, published 2008)
pIC50: −log10 of the molar value.

Target: PI3K (Homo sapiens, UniProt P42336)
Assay: Fluorescence polarization assay for PI3K;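 further: PI3K kinase reaction on PIP2 with ATP, 30-60 min, product sensed by GST-GRP with red probe in fluorescence polarization (mP), controls without enzyme and at zero time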
Type: biochemical
Details: PI3Kα; read-out: PI3Kα IC50

PI3K, sequence (P42336 whole entry): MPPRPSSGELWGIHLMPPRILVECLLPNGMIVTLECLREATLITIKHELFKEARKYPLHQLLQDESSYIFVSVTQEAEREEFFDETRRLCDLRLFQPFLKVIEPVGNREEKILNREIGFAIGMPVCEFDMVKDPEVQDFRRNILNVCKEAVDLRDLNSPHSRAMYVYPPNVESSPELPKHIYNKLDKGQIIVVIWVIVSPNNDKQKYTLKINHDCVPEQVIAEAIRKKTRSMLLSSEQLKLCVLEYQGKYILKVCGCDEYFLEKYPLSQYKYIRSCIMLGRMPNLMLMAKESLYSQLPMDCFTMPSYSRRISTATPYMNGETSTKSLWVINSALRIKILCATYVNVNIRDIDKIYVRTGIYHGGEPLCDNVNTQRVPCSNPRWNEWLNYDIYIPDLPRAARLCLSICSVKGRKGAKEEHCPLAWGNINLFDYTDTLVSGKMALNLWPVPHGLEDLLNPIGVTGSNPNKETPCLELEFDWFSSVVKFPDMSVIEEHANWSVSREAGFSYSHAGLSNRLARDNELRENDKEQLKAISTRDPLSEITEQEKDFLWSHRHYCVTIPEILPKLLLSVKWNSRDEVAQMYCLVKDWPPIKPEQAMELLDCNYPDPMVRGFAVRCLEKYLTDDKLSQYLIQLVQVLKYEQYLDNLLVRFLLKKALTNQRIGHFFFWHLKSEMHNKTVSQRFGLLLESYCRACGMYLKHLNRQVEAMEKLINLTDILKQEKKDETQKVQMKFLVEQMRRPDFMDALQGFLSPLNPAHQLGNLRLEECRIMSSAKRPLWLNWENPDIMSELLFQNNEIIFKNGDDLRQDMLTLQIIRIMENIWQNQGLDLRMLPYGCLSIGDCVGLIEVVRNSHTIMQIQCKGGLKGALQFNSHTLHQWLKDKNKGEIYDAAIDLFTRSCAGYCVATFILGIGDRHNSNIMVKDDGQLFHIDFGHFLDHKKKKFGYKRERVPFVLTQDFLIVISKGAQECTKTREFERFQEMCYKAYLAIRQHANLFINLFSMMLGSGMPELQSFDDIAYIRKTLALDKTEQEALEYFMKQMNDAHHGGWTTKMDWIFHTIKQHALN
PI3K, sequence (P27986 whole entry partner): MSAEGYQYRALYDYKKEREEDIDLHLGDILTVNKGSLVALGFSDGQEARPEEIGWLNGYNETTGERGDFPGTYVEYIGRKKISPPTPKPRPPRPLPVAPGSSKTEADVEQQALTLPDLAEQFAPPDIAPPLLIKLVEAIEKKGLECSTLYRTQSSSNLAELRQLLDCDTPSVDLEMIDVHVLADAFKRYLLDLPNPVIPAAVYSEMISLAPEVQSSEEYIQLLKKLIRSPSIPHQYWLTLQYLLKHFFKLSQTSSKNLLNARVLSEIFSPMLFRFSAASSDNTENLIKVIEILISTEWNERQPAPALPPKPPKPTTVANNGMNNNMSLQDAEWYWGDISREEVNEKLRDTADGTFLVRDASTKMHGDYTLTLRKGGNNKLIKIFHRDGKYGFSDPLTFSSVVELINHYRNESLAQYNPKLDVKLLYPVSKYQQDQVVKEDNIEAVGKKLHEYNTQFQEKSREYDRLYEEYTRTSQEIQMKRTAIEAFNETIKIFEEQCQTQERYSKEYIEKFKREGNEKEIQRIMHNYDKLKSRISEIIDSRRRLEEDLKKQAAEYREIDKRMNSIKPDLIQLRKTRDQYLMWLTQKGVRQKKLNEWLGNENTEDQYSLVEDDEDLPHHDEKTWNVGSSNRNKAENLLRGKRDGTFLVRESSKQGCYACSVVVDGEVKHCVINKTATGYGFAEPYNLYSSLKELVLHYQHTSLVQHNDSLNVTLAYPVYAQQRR

Row | Structure (SMILES) | pIC50
1 | CNC(=O)Nc1ccc(-c2nc(N3CCOCC3)c3cnn(-c4ccccc4)c3n2)cc1 [Example 297, 1-methyl-3-[4-(4-morpholin-4-yl-1-phenyl-1H-pyrazolo[3,4-d]pyrimidin-6-yl)phenyl]urea] | 7.29
2 | Nc1ccc(-c2nc(N3CCOCC3)c3cnn(C4CCN(C(=O)c5cccnc5)CC4)c3n2)c(F)c1 [Compound 704, 3-fluoro-4-{4-morpholin-4-yl-1-[1-(pyridin-3-ylcarbonyl)piperidin-4-yl]-1H-pyrazolo[3,4-d]pyrimidin-6-yl}aniline] | 5.39
3 | COc1cccc(C(=O)Nc2ccc(-c3nc(N4CCOCC4)c4cn[nH]c4n3)cc2)c1 [Compound 277, 3-methoxy-N-[4-(4-morpholin-4-yl-1H-pyrazolo[3,4-d]pyrimidin-6-yl)phenyl]benzamide] | 6.36
4 | COC(=O)Nc1ccc(-c2nc(N3CCOCC3)c3cnn(C4CCN(Cc5ccc(Cl)nc5)CC4)c3n2)cc1 [Compound 698, methyl [4-(1-{1-[(6-chloropyridin-3-yl)methyl]piperidin-4-yl}-4-morpholin-4-yl-1H-pyrazolo[3,4-d]pyrimidin-6-yl)phenyl]carbamate] | 6.21
5 | Oc1cncc(-c2nc(N3CCOCC3)c3cnn(C4CCN(Cc5ccccc5)CC4)c3n2)c1 [Compound 930, 5-[1-(1-benzylpiperidin-4-yl)-4-morpholin-4-yl-1H-pyrazolo[3,4-d]pyrimidin-6-yl]pyridin-3-ol] | 7.44
6 | Nc1cc(F)c(-c2nc(N3CCOCC3)c3cnn(C4CCN(C(=O)c5cccnc5)CC4)c3n2)cc1F [Compound 464, 2,5-difluoro-4-{4-morpholin-4-yl-1-[1-(pyridin-3-ylcarbonyl)piperidin-4-yl]-1H-pyrazolo[3,4-d]pyrimidin-6-yl}aniline] | 5.44
7 | COC(=O)Nc1ccc(-c2nc(N3CCOCC3)c3cnn(C4CCN(C(=O)c5cnccc5C)CC4)c3n2)cc1 [Example 440, methyl [4-(1-{1-[(4-methylpyridin-3-yl)carbonyl]piperidin-4-yl}-4-morpholin-4-yl-1H-pyrazolo[3,4-d]pyrimidin-6-yl)phenyl]carbamate] | 5.60
8 | O=C(NCCO)Nc1ccc(-c2nc(N3CCOCC3)c3cnn(C4CCN(C(=O)c5ccccc5)CC4)c3n2)cc1 [Compound 630, 1-{4-[1-(1-benzoylpiperidin-4-yl)-4-morpholin-4-yl-1H-pyrazolo[3,4-d]pyrimidin-6-yl]phenyl}-3-(2-hydroxyethyl)urea] | 6.64
9 | CNC(=O)Nc1ccc(-c2nc(N3CCOCC3)c3cnn(C4CCN(C(=O)c5cccnc5)CC4)c3n2)c(F)c1 [Example 461, 1-(3-fluoro-4-{4-morpholin-4-yl-1-[1-(pyridin-3-ylcarbonyl)piperidin-4-yl]-1H-pyrazolo[3,4-d]pyrimidin-6-yl}phenyl)-3-methylurea] | 6.05
10 | c1ccc(CN2CCC(n3ncc4c(N5CCOCC5)nc(-c5ccc6ncccc6c5)nc43)CC2)cc1 [Compound 369, 6-[1-(1-benzylpiperidin-4-yl)-4-morpholin-4-yl-1H-pyrazolo[3,4-d]pyrimidin-6-yl]quinoline] | 6.33
11 | c1cncc(CN2CCC(n3ncc4c(N5CCOCC5)nc(-c5ccc6c(c5)CCN6)nc43)CC2)c1 [Compound 416, 6-(2,3-dihydro-1H-indol-5-yl)-4-morpholin-4-yl-1-[1-(pyridin-3-ylmethyl)piperidin-4-yl]-1H-pyrazolo[3,4-d]pyrimidine] | 5.83
12 | COC(=O)Nc1ccc(-c2nc(N3CCOCC3)c3cnn(C4CCN(CC(N)=O)CC4)c3n2)cc1 [Compound 700, methyl (4-{1-[1-(2-amino-2-oxoethyl)piperidin-4-yl]-4-morpholin-4-yl-1H-pyrazolo[3,4-d]pyrimidin-6-yl}phenyl)carbamate] | 5.84
13 | CNC(=O)Nc1ccc(-c2nc(N3CCOCC3)c3cnn(C4CCCCO4)c3n2)cc1 (stereo not drawn) [Example 235, 1-methyl-3-{4-[4-morpholin-4-yl-1-(tetrahydro-2H-pyran-2-yl)-1H-pyrazolo[3,4-d]pyrimidin-6-yl]phenyl}urea] | 5.31
14 | NC(=O)Nc1cccc(-c2nc(N3CCOCC3)c3cnn(C4CCN(Cc5ccccc5)CC4)c3n2)c1 [Compound 229, N-{3-[1-(1-benzylpiperidin-4-yl)-4-morpholin-4-yl-1H-pyrazolo[3,4-d]pyrimidin-6-yl]phenyl}urea] | 5.66
15 | COC(=O)Nc1ccc(-c2nc(N3CCOCC3)c3cnn(C4CCN(C(=O)c5ccc(F)cc5)CC4)c3n2)cc1 [Compound 689, methyl (4-{1-[1-(4-fluorobenzoyl)piperidin-4-yl]-4-morpholin-4-yl-1H-pyrazolo[3,4-d]pyrimidin-6-yl}phenyl)carbamate] | 6.00
16 | COC(=O)Nc1ccc(-c2nc(N3CCOCC3)c3cnn(C4CCN(Cc5ccccc5Cl)CC4)c3n2)cc1 [Compound 699, methyl (4-{1-[1-(2-chlorobenzyl)piperidin-4-yl]-4-morpholin-4-yl-1H-pyrazolo[3,4-d]pyrimidin-6-yl}phenyl)carbamate] | 6.10
17 | COC(=O)Nc1ccc(-c2nc(N3CCOCC3)c3cnn(C4CCCCO4)c3n2)cc1 (stereo not drawn) [Compound 274, methyl {4-[4-morpholin-4-yl-1-(tetrahydro-2H-pyran-2-yl)-1H-pyrazolo[3,4-d]pyrimidin-6-yl]phenyl}carbamate] | 5.59
18 | Nc1ccc(-c2nc(N3CCOCC3)c3cnn(C4CCCCO4)c3n2)cc1 (stereo not drawn) [Compound 934, 4-[4-morpholin-4-yl-1-(tetrahydro-2H-pyran-2-yl)-1H-pyrazolo[3,4-d]pyrimidin-6-yl]aniline] | 5.31
19 | CNC(=O)Nc1ccc(-c2nc(N3CCOCC3)c3cnn(C4CCN(Cc5ccccc5)CC4)c3n2)cc1F [Example 348, 1-{4-[1-(1-benzylpiperidin-4-yl)-4-morpholin-4-yl-1H-pyrazolo[3,4-d]pyrimidin-6-yl]-2-fluorophenyl}-3-methylurea] | 6.70
20 | CC(=O)Nc1ccc(-c2nc(N3CCOCC3)c3cnn(C4CCN(C(=O)c5cccnc5)CC4)c3n2)cc1 [Example 221, N-(4-{4-morpholin-4-yl-1-[1-(pyridin-3-ylcarbonyl)piperidin-4-yl]-1H-pyrazolo[3,4-d]pyrimidin-6-yl}phenyl)acetamide] | 6.06
21 | CNC(=O)Nc1ccc(-c2nc(N3CCOCC3)c3cnn(C4CCN(C(=O)COC)CC4)c3n2)cc1 [Compound 718, 1-(4-{1-[1-(methoxyacetyl)piperidin-4-yl]-4-morpholin-4-yl-1H-pyrazolo[3,4-d]pyrimidin-6-yl}phenyl)-3-methylurea] | 6.54
22 | CCNC(=O)Nc1ccc(-c2nc(N3CCOCC3)c3cnn(C4CCN(C(=O)c5cccnc5)CC4)c3n2)c(F)c1 [Compound 706, 1-ethyl-3-(3-fluoro-4-{4-morpholin-4-yl-1-[1-(pyridin-3-ylcarbonyl)piperidin-4-yl]-1H-pyrazolo[3,4-d]pyrimidin-6-yl}phenyl)urea] | 5.79
23 | O=C(NCc1ccco1)Nc1ccc(-c2nc(N3CCOCC3)c3cnn(C4CCN(Cc5cccnc5)CC4)c3n2)cc1 [Compound 376, 1-(2-furylmethyl)-3-(4-{4-morpholin-4-yl-1-[1-(pyridin-3-ylmethyl)piperidin-4-yl]-1H-pyrazolo[3,4-d]pyrimidin-6-yl}phenyl)urea] | 6.44
24 | COCOc1cncc(-c2nc(N3CCOCC3)c3cnn(C4CCN(Cc5ccccc5)CC4)c3n2)c1 [Compound 931, 1-(1-benzylpiperidin-4-yl)-6-[5-(methoxymethoxy)pyridin-3-yl]-4-morpholin-4-yl-1H-pyrazolo[3,4-d]pyrimidine] | 5.70
